The record followed here is US20020106347A1, “Cytokines and their use in treatment and/or prophylaxis of breast cancer” (priority 1995, published 2002).

Entries after “also recorded” stand apart in the source; their conditions may differ.

Holding throughout (assay type): cell-based, human
Assay [1] deals with BT-549. The experiment in a line: Cell morphology after exposure to OSM. The note with it: BT-549 exposed to OSM. The text has this:
(§1) The action of IL-6, LIF, OSM CNTF and IL-11 was examined on 4 breast cancer cell lines grown in monolayer culture. Striking changes in the morphology of cells were observed. FIG. 15 compares morphology of untreated cells with cells exposed to OSM. […] This was associated with the appearance of decreased intercellular adhesion or cellular contraction. These changes were quite marked by day 14.

Assay [2] deals with T-47D cells. The experiment in a line: Cell morphology after exposure to OSM. The note with it: T-47D cultured with OSM.
Source text: as §1

The test system of assay [3] is ER in MCF-7 cells. Kind of assay: ER expression by antibody staining on chamber slides. The settings on record: MCF-7, 6 days. As to the method:
(§2) MCF-7 cells were grown on chamber slides for 6 days in RPMI/10% (v/v) BCS with the following growth factors, prior to being stained with an antibody specific for ER. […] Cells stained brown indicate ER positivity.
as §2

Assay [4] relates to MCF-7 cells. The experiment in a line: Cell cycle analysis by flow cytometry (DNA content). The settings on record: MCF-7, serum-free medium. As to the method:
FIG. 9 is a graphical representation showing the effect of OSM on cell cycle. MCF-7 cells treated with OSM while growing in serum-free medium were harvested by treatment with trypsin and stained for DNA content analysis by flow cytometry. Cell cycle distributions were calculated by computer fitting of the resultant histograms. […] FIG. 10(b) represents data from 2 experiments (performed in triplicate) where the number of cells in S phase are represented as a percentage of the corresponding untreated control value.
Cell cycle distributions were calculated by computer fitting of the resultant histograms. Results represent the combined data from 3 experiments (performed in triplicate) where the number of cells in S phase are represented as a percentage of the corresponding untreated control value.
Cell cycle analysis was performed in serum-free medium (Sigma). Analysis was performed 2-4 days after cells were washed and re-cultured in serum-free medium. Growth factors were added to the medium as indicated. At the times shown thereafter, cells were harvested with 0.05% (w/v) trpsin-0.02% (w/v) EDTA. The cells were resuspended in serum-free tissue culture medium and after cell counting using a hemacytometer, stained for later DNA analysis by the addition of 0.25% prothidium iodide in the presence of 0.2% (v/v) Triton X-100. DNA histograms were obtained by using a FACScan flow cytometer (Becton Dickinson Immunocytochemistry Systems) and the cell cycle phase distribution was estimated by using the manufacturer's DNA analysis software (Cellfit). Each histogram contained 10,000 events.

The subject of assay [5] is MDA-MB-231 cells. Kind of assay: Cell morphology after exposure to OSM. The note with it: MDA-MB-231 exposed to OSM. How it is done:
FIG. 15 is a photographic representation showing cell morphology after exposure to OSM. MCF-7 cells from control cultures (Panel A) and appearance of cells after culture for 14 days in OSM (10 ng/ml) (Panel B). MDA-MB-231 cells from control cultures (Panel C) and appearance of cells after culture for 7 days in OSM (Panel D).
as §1

With oncostatin M [OSM], the “cell morphology (in words)” value in assay [1] is given as “Transformation to a fibroblastic phenotype”; in assay [2], “more rounded in appearance”; in assay [5], “Transformation to a fibroblastic phenotype”. Further, the “cells staining very weakly for ER” value in assay [3] was found to be 50%. The “effect on S phase fraction (in words)” value in assay [4] is given as “marked decrease in the S phase cells; also recorded: decreased”. Besides, the “effect on percentage of cells in G1 phase (in words)” value in assay [4] was “concomitant increase in the percentage of cells in G1 phase”. Moreover, the “number of cells in S phase as percentage of control cells” value in assay [4] (by 24 hour) stood at 50%. Besides, the “percentage of cells in S phase following treatment” value in assay [4] (decreases from approximately 15% over a 72 hour time period) is approximately 8%.
